{
  "source": "paper PMC5841658",
  "about": "“Anti-cancer characteristics and ototoxicity of platinum(II) amine complexes with only one leaving ligand” (PLoS ONE, 2018)",
  "system": "A549, Caco2, HTB16 and IMR90 cell lines",
  "assay": "MTT cellular viability assay, comparison over all cell lines",
  "format": "cell-based",
  "settings": "in our cell lines (Table 2)",
  "protocol": "Cell lines were obtained from American Type Culture Collection (ATCC, Manassas, VA). The A549 (ATCC: CCL-185) lung cancer cell line was grown in F12K media with 10% FBS and 1% penicillin/streptomycin supplementation. Both the U-138 MG (ATCC: HTB-16) glioblastoma cancer cell line and IMR-90 (ATCC: CCL-186) lung fibroblast control cell line were grown in Eagle’s Minimum Essential Medium (EMEM) with supplementation as in A549. Caco-2 (ATCC: HTB-37) colorectal cancer was grown in EMEM with 20% FBS and 1% penicillin/streptomycin. All cell lines were incubated at 37°C in 5% CO2 with passaging every 4–7 days. […]\nThe MTT (3-(4,5-dimethylthiazol-2-yl)-2,5-diphenyltetrazolium bromide) cellular viability assay was performed in all three cancer cell lines and the non-cancer cell line. […] The MTT assay was run for 2 hours, then well contents were rapidly evacuated out and all wells were treated with MTT solubilization solution [10% Triton X-100 in acidic (0.1N HCl) isopropanol] for 15 minutes before the plates were read using a BioTek Synergy HT microplate plate reader (570 nm and 690 nm absorbance wavelengths). […]\nGraphPad Prism v6 (La Jolla, CA) was used for all statistical analysis. Nuclear fraction platinum uptake as a total percent of combined nuclear and cytosolic uptake was analyzed using a one-way ANOVA (Brown-Forsyth test; p ≤ 0.05). […]",
  "data": [
    {"substance": "phenanthriplatin", "values": [
      {"measurement": "factor by which cellular viability is reduced more than by pyriplatin", "value": "at least 10"}
    ]}
  ]
}
